In patent US12291515B2, “Pyrrolidine derivative and use thereof” (Rushi Biotech (Hangzhou) Co., Ltd, priority 2021, dated 2025):

Columns and labels:
Assay type in all cases: cell-based
[1] = test system: Human colon cancer cell HCT-116; experiment: CCK-8 cell proliferation assay, HCT116; details: HCT116 cells, CCK-8, 24 hrs with drug, OD 450 nm
Protocol: (§1) The effect of samples on the proliferation of human tumor cells in vitro was determined by CCK-8 cell proliferation assay.
(§2) The cells were assayed through a method including the following steps:
(§3) 1) The cells were digested, counted, and prepared into a cell suspension in a corresponding culture medium (Table 1) (5×10^4 cells/ml for CFPAC-1 and RPMI 8226, and 3.5×10^4 cells/ml for rest cells). The cell suspension was added to each well of a 96-well plate in 100 μl well.
(§4) 2) Then the 96-well plate was incubated for 24 hrs in an incubator at 37° C. and 5% CO2.
(§5) 3) The drug was diluted with the culture medium to the required working concentration. 100 μl of the corresponding drug containing medium was added to each well. A negative control group (added with drug-free culture medium) was also set.
(§6) 4) Then the 96-well plate was incubated for 24 hrs in an incubator at 37° C. and 5% CO2.
(§7) 5) The 96-well plate was stained with CCK-8, and The OD value was determined at λ=450 nm.
(§8) a) 10 μl of CCK-8 was added to each well, and incubated in the incubator for another 2-3 hrs.
(§9) b) The content was mixed uniformly by shaking gently on a shaker for 10 min, and the bubbles in the 96-well plate were removed.
(§10) 6) The inhibition rate in each group was calculated.

[2] = test system: Human lung adenocarcinoma cell A549; experiment: CCK-8 cell proliferation assay, A549; details: A549 cells, CCK-8, 24 hrs with drug, OD 450 nm
Protocol: as §1, §2, §3, §4, §5, §6, §7, §8, §9, §10

[3] = test system: Human esophageal cancer cell TE-1; experiment: CCK-8 cell proliferation assay, TE-1; details: TE-1 cells, CCK-8, 24 hrs with drug, OD 450 nm
Protocol: as §1, §2, §3, §4, §5, §6, §7, §8, §9, §10

[4] = test system: Human gastric cancer cell MKN45; experiment: CCK-8 cell proliferation assay, MKN-45; details: MKN-45 cells, CCK-8, 24 hrs with drug, OD 450 nm
Protocol: as §1, §2, §3, §4, §5, §6, §7, §8, §9, §10

[5] = test system: Human hepatoma cell HepG2; experiment: CCK-8 cell proliferation assay, HepG2; details: HepG2 cells, CCK-8, 24 hrs with drug, OD 450 nm
Protocol: as §1, §2, §3, §4, §5, §6, §7, §8, §9, §10

[6] = test system: Human pancreatic cancer cell CFPAC-1; experiment: CCK-8 cell proliferation assay, CFPAC-1; details: CFPAC-1 cells, CCK-8, 24 hrs with drug, OD 450 nm
Protocol: as §1, §2, §3, §4, §5, §6, §7, §8, §9, §10

[7] = test system: Human multiple myeloma cell RPMI 8226; experiment: CCK-8 cell proliferation assay, RPMI8226; details: RPMI8226 cells, CCK-8, 24 hrs with drug, OD 450 nm
Protocol: as §1, §2, §3, §4, §5, §6, §7, §8, §9, §10

Work on `O=C(NCCCCCCC1CCN(C(=O)c2cc3ccccc3[nH]2)C1)Nc1ccncc1` (stereo not shown) [BSS-TP121, 1-(6(1-(2-indolylformyl)pyrrolidin-3-yl)hexyl)-2-(4-pyridinyl)urea] yielded an IC50 [1] of 83 nM, an IC50 [2] of 69 nM and an IC50 [3] of 74 nM. The IC50 [4] was 32 nM, the IC50 [5] was 72 nM and the IC50 [6] was 51 nM. For the same molecule, the IC50 [7] was 52 nM.
For `O=C(NCCCCCCC1CCN(C(=O)c2cc3ccccc3o2)C1)Nc1ccncc1` (stereo not shown) [BSS-TP122, 1-(6-(1-(2-benzofurylformyl)pyrrolidin-3-yl)hexyl)-2-(4-pyridinyl)urea], the IC50 [1] was 69 nM, the IC50 [2] was 67 nM and the IC50 [3] was 63 nM. The IC50 [4] was 61 nM, the IC50 [5] was 71 nM and the IC50 [6] was 49 nM. For the same molecule, the IC50 [7] was 26 nM.
With `O=C(NCCCCCCC1CCN(C(=O)c2cc3ccccc3[nH]2)C1)Nc1ccnc(F)c1` (stereo not shown) [BSS-TP123] the IC50 [1] was 58 nM, the IC50 [2] was 63 nM and the IC50 [3] was 65 nM. For the same molecule, the IC50 [4] was 69 nM, the IC50 [5] was 59 nM and the IC50 [6] was 59 nM. The IC50 [7] was 32 nM.
For `O=C(NCCCCCCC1CCN(C(=O)c2cc3ccccc3o2)C1)Nc1ccnc(F)c1` (stereo not shown) [BSS-TP124], the IC50 [1] was 73 nM, the IC50 [2] was 56 nM and the IC50 [3] was 82 nM. It also gave an IC50 [4] of 64 nM, an IC50 [5] of 63 nM and an IC50 [6] of 42 nM. The IC50 [7] was 39 nM.
In the case of `COc1cccc(OC)c1C(=O)N1CCC(CCCCCCNC(=O)Nc2cc(F)nc(F)c2)C1` (stereo not shown) [BSS-TP125], the IC50 [1] is reported as 49 nM, the IC50 [2] is reported as 46 nM and the IC50 [3] is reported as 43 nM. For the same molecule, the IC50 [4] was 57 nM, the IC50 [5] was 52 nM and the IC50 [6] was 47 nM. For the same molecule, the IC50 [7] was 28 nM.
In the case of `COc1cccc(OC)c1C(=O)N1CCC(CCCCCCCNC(=O)Nc2ccncc2)C1` (stereo not shown) [BSS-TP126, 1-(7-(1-(2,6-dimethoxybenzoyl)pyrrolidin-3-yl)heptyl)-2-(4-pyridinyl) urea], the IC50 [1] is reported as 63 nM, the IC50 [2] is reported as 55 nM and the IC50 [3] is reported as 88 nM. The IC50 [4] was 32 nM, the IC50 [5] was 92 nM and the IC50 [6] was 53 nM. It also gave an IC50 [7] of 33 nM.
Work on `COc1cccc(OC)c1C(=O)N1CCC(CCCCNC(=O)Nc2ccncc2)C1` (stereo not shown) [BSS-TP127, 1-(4-(1-(2,6-dimethoxybenzoyl)pyrrolidin-3-yl)butyl)-2-(4-pyridinyl) urea] yielded an IC50 [1] of 76 nM, an IC50 [2] of 75 nM and an IC50 [3] of 135 nM. For the same molecule, the IC50 [4] was 109 nM, the IC50 [5] was 102 nM and the IC50 [6] was 58 nM. The IC50 [7] was 34 nM.
`O=C(NCCCCCCCC1CCN(C(=O)c2ccco2)C1)Nc1ccncc1` (stereo not shown) [BSS-TP128, 1-(7-(1-(furoyl)pyrrolidin-3-yl)heptyl)-2-(4-pyridinyl)urea] showed an IC50 [1] of 97 nM, an IC50 [2] of 68 nM and an IC50 [3] of 124 nM. The IC50 [4] was 51 nM, the IC50 [5] was 110 nM and the IC50 [6] was 53 nM. The IC50 [7] was 36 nM.
For `O=C(NCCCCCCCC1CCN(C(=O)c2ccc[nH]2)C1)Nc1ccncc1` (stereo not shown) [BSS-TP129, 1-(7-(1-(2-pyrrolylformyl)pyrrolidin-3-yl)heptyl)-2-(4-pyridinyl)urea], the IC50 [1] was 72 nM, the IC50 [2] was 73 nM and the IC50 [3] was 96 nM. It also gave an IC50 [4] of 49 nM, an IC50 [5] of 93 nM and an IC50 [6] of 28 nM. For the same molecule, the IC50 [7] was 23 nM.
Work on `COc1cccc(OC)c1C(=O)N1CCC(CCCCCCCNC(=O)Nc2ccnc(F)c2)C1` (stereo not shown) [BSS-TP130] yielded an IC50 [1] of 46 nM, an IC50 [2] of 56 nM and an IC50 [3] of 61 nM. It also gave an IC50 [4] of 73 nM, an IC50 [5] of 55 nM and an IC50 [6] of 43 nM. The IC50 [7] was 38 nM.
`O=C(NCCCCCCCC1CCN(C(=O)c2ccccc2)C1)Nc1ccncc1` (stereo not shown) [BSS-TP131] was tested, and the IC50 [1] was 75 nM, the IC50 [2] was 43 nM and the IC50 [3] was 69 nM. For the same molecule, the IC50 [4] was 47 nM, the IC50 [5] was 67 nM and the IC50 [6] was 36 nM. The IC50 [7] was 29 nM.
With `O=C(NCCCCCCCC1CCN(C(=O)c2ccccc2)C1)Nc1ccnc(F)c1` (stereo not shown) [BSS-TP132] the IC50 [1] was 65 nM, the IC50 [2] was 51 nM and the IC50 [3] was 77 nM. For the same molecule, the IC50 [4] was 39 nM, the IC50 [5] was 61 nM and the IC50 [6] was 30 nM. For the same molecule, the IC50 [7] was 34 nM.
For `O=C(/C=C/c1cccnc1)NCCCCC1CCN(C(=O)c2ccccc2)CC1` [FK866, reference compound], the IC50 [1] was 92 nM, the IC50 [2] was 37 nM and the IC50 [3] was 112 nM. For the same molecule, the IC50 [4] was 39 nM, the IC50 [5] was 99 nM and the IC50 [6] was 37 nM. The IC50 [7] was 20 nM.
